These are literature values, as cited in US9457026B2, “Methods for producing aripiprazole suspension and freeze-dried formulation” (OTSUKA PHARMACEUTICAL CO., LTD., priority 2007, dated 2016).

The conditions of the data set: room temperature.

The structures appear in SMILES notation.

`O=C1CCc2ccc(OCCCCN3CCN(c4cccc(Cl)c4Cl)CC3)cc2N1` [Aripiprazole]: the aqueous solubility is under 1 µg/mL.

One may read the aqueous solubility as how much of the substance goes into solution per volume.
